Read-outs that look alike come from different tables or passages of the source.
Assays:
recombinant RSV complex = recombinant RSV complex (Human respiratory syncytial virus A, UniProt P28887); test: RSV Polymerase Inhibition Assay; format: biochemical
In short: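 Inhibition measured as reduced incorporation of radiolabel into RNA products, detected by scintillation counting. Reactions: recombinant RSV complex (10 nM), RNA oligonucleotides, Tris-HCl pH 7.5, 6 mM MgCl2, inhibitor titration, 2 h at 30 °C, EDTA stop.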

RSV replicon = test: microbe, parasite or virus in culture; format: cell-based; details: human respiratory syncytial virus, read-out: EC50, the concentration of the drug required for reducing RSV replicon RNA by 50%
[1] = Cytotoxicity Determination (CCK-8, without addition of virus); format: cell-based; details: human
In short: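 Cytotoxicity was measured by CCK-8 after 3-4 hours at 37 °C, following 5 days of uninfected exposure at 37 °C and 5% CO2. Compounds ran as duplicate 7-point 1/2 dilutions starting at 100 μM, with 1% final DMSO. HEp-2 cells had been plated at 1,500/well the day before.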

[2] = system: Respiratory Syncytial Virus (RSV) long strain; test: microbe, parasite or virus in culture; format: cell-based; details: human respiratory syncytial virus, Tables A and B list compounds by EC50 band
In short: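 CPE-reduction format: viability measured colorimetrically with CCK-8 (450 nm, 630 nm reference) after 3-4 h, following 5-day infection at 37 °C, 5% CO2. Cells were HEp-2; inoculum 100 TCID50/well; duplicate 9-point 1/3 series starting at 100 μM or 1 μM.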

[3] = 50% cytotoxicity concentration (CC50)
[4] = HEp-2, 120 h, read-out: 50% effective concentration (EC50), HEp-2 cells infected with RSV long strain, 5 days, CCK-8 readout
[5] = 120 h, read-out: 50% effective concentration (EC50), HEp-2 cells infected with RSV long strain, 5 days, CCK-8 readout

Chain of recombinant RSV complex (P28887 whole entry): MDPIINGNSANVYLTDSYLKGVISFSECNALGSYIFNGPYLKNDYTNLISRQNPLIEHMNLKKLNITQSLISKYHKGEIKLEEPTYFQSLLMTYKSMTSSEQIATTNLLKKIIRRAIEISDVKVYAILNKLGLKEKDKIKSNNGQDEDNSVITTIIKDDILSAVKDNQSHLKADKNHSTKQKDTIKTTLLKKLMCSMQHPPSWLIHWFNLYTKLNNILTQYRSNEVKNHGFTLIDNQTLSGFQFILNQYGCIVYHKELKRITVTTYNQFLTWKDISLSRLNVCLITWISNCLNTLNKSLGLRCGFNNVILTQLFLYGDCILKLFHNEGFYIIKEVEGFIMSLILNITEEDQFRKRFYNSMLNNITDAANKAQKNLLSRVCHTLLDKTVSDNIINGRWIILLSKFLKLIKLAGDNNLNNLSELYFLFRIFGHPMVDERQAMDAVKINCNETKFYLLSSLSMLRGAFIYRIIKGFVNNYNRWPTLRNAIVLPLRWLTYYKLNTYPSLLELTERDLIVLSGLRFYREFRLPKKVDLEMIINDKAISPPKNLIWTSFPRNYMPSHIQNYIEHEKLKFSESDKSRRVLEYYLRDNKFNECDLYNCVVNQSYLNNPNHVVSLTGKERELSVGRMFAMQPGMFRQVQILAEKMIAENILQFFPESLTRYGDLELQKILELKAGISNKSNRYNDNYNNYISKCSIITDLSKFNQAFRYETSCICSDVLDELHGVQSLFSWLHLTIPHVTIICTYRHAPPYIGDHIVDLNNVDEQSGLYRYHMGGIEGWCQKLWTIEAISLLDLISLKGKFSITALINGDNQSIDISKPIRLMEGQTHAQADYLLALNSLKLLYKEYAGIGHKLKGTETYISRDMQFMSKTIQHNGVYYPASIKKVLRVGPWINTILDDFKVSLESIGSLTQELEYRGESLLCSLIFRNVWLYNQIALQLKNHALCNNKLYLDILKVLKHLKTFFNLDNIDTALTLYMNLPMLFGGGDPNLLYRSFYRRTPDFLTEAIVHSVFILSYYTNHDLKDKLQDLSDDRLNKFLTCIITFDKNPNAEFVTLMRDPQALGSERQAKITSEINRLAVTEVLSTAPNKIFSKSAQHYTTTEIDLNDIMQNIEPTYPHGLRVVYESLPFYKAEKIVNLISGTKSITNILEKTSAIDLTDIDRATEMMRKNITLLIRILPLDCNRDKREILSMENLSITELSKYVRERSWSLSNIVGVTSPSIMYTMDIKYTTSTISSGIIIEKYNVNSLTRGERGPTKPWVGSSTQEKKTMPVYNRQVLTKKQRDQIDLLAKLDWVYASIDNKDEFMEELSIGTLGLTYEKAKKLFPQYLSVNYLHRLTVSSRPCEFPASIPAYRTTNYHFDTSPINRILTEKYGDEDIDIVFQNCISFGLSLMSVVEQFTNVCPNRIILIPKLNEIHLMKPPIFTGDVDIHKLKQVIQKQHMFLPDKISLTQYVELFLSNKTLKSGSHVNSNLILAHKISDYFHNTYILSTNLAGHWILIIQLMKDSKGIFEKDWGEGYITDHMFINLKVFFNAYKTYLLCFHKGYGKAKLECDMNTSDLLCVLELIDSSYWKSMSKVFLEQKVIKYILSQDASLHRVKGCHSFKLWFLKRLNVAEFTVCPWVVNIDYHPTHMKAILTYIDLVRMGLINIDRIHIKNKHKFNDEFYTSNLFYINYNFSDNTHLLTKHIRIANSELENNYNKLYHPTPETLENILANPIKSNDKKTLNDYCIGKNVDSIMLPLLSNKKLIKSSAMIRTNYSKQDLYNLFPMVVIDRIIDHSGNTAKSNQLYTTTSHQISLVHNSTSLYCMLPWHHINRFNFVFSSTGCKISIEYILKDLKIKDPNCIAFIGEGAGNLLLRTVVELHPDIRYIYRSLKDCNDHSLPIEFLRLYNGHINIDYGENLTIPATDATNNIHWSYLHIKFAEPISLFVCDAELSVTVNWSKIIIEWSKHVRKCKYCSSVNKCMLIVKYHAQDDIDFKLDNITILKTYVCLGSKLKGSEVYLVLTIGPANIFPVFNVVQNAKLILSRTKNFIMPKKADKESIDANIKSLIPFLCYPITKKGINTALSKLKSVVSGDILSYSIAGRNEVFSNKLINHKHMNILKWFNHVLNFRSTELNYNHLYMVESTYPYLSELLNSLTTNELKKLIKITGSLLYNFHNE
Chain of recombinant RSV complex (P03421 whole entry, further chain): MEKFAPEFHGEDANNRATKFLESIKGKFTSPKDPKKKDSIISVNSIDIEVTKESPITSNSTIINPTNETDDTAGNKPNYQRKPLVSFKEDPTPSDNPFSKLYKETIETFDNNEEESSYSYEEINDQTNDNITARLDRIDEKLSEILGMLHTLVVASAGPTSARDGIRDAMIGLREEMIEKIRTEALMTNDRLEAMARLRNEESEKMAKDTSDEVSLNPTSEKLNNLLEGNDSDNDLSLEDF

COc1cc(C(=O)NCC(O)(c2ccc(OC)c(-c3ccc(F)c(Cl)c3)n2)C(C)(C)C)ccc1OCCF (stereo not shown) [Compound 313]
IC50 (recombinant RSV complex): < 10 µM | EC50 (RSV replicon): 1 to 50 µM | CC50 at 5 days [1, 3]: 10 to 100 µM | EC50 [2, 4]: 1 to 50 µM

COc1cc(C(=O)NCC(O)(c2cc3c(c(-c4ccc(F)cc4)n2)OCC3(C)N)C(F)(F)F)ccc1OCC(N)=O (stereo not shown) [Compound 543]
IC50 (recombinant RSV complex): < 1 µM | EC50 (RSV replicon): < 1 µM | CC50 at 5 days [1, 3]: 10 to 100 µM | EC50 [2, 4]: < 1 µM

COc1cc(C(=O)NCC(O)(c2cc(C(C)(N)CF)cc(-c3ccc(F)c(Cl)c3)n2)C(F)(F)F)ccc1OCCO (stereo not shown) [Compound 540]
IC50 (recombinant RSV complex): < 1 µM | EC50 (RSV replicon): < 1 µM | CC50 at 5 days [1, 3]: 10 to 100 µM | EC50 [2, 5]: < 1 µM

CCOc1ccc(C(=O)NCC(O)(c2cc3c(c(-c4ccc(F)c(Cl)c4)n2)OCC3(C)N)C(F)(F)F)cc1OC (stereo not shown) [Compound 498]
IC50 (recombinant RSV complex): < 1 µM | EC50 (RSV replicon): < 1 µM | CC50 at 5 days [1, 3]: 10 to 100 µM | EC50 [2, 4]: < 1 µM

COc1cc(C(=O)NC[C@@](O)(c2cc(C(C)(C)N)cc(-c3ccc(F)cc3)n2)C(F)(F)F)ccc1OC[C@@H](C)O [Compound 545]
IC50 (recombinant RSV complex): < 1 µM | EC50 (RSV replicon): < 1 µM | CC50 at 5 days [1, 3]: 10 to 100 µM | EC50 [2, 4]: < 1 µM

COc1ccc(C(O)(CNC(=O)c2ccc(OCC(N)=O)c(Cl)c2)C(F)(F)F)nc1-c1ccc(F)c(Cl)c1 (stereo not shown) [Compound 237]
IC50 (recombinant RSV complex): < 1 µM | EC50 (RSV replicon): < 1 µM | CC50 at 5 days [1, 3]: 10 to 100 µM | EC50 [2, 4]: < 1 µM

COc1cc(C(=O)NCC(O)(c2ccc(OC)c(-c3ccc(F)c(Cl)c3)n2)C(C)C)ccc1OCCF (stereo not shown) [Compound 125]
IC50 (recombinant RSV complex): < 1 µM | EC50 (RSV replicon): < 1 µM | CC50 at 5 days [1, 3]: 10 to 100 µM | EC50 [2, 4]: < 1 µM

COc1cc(C(=O)NC[C@](O)(c2cc3c(c(-c4ccc(F)cc4)n2)OCC3(C)CN)C(F)(F)F)ccc1OCCO (stereo partly shown) [Compound 633b]
IC50 (recombinant RSV complex): < 1 µM | EC50 (RSV replicon): < 1 µM | CC50 at 5 days [1, 3]: 10 to 100 µM | EC50 [2, 4]: < 1 µM

CCOC(=O)NC(C)(C)c1cc(-c2ccc(F)c(Cl)c2)nc(C(O)(CNC(=O)c2ccc(OC3CC3)c(OC)c2)C(F)(F)F)c1 (stereo not shown) [Compound 331]
IC50 (recombinant RSV complex; read-out: IC50 (compound concentration at which the enzyme-catalyzed rate was reduced by 50%), 10 nM recombinant RSV complex, 2 h at 30° C., Tables E, F and G list compounds by IC50 band): < 1 µM | EC50 (RSV replicon): < 1 µM | CC50 at 5 days [1, 3]: > 100 µM | EC50 [2, 4]: < 1 µM

CCc1ccc(C(C)(O)CNC(=O)c2ccc(OC)c(OC)c2)nc1-c1csc2c(F)cccc12 (stereo not shown) [Compound 115]
IC50 (recombinant RSV complex): < 1 µM | EC50 (RSV replicon): < 1 µM | CC50 at 5 days [1, 3]: 10 to 100 µM | EC50 [2, 4]: < 1 µM

COc1cc(C(=O)NCC(O)(c2cc3c(c(-c4ccc(F)c(Cl)c4)n2)OCC3(C)C)C(F)(F)F)ccc1OC1CCNC1=O (stereo not shown) [Compound 200]
IC50 (recombinant RSV complex): < 1 µM | EC50 (RSV replicon): < 1 µM | CC50 at 5 days [1, 3]: 10 to 100 µM | EC50 [2, 5]: < 1 µM

COc1cc(C(=O)NC[C@@](O)(c2cc3c(c(-c4ccc(F)cc4)n2)OCC3(N)CO)C(F)(F)F)ccc1OC1CC1 (stereo partly shown) [Compound 653]
IC50 (recombinant RSV complex): < 1 µM | EC50 (RSV replicon): < 1 µM | CC50 at 5 days [1, 3]: > 100 µM | EC50 [2, 4]: < 1 µM

COc1cc(C(=O)NCC(O)(c2cc(C(C)(N)CF)cc(-c3ccc(F)c(Cl)c3)n2)C(F)(F)F)ccc1OC1CC1 (stereo not shown) [Compound 534]
IC50 (recombinant RSV complex): < 1 µM | EC50 (RSV replicon): < 1 µM | CC50 at 5 days [1, 3]: 10 to 100 µM | EC50 [2, 4]: < 1 µM

C#CC(O)(CNC(=O)c1ccc(OCCF)c(OC)c1)c1ccc(OC)c(-c2ccc(F)c(Cl)c2)n1 (stereo not shown) [Compound 127]
IC50 (recombinant RSV complex): < 1 µM | EC50 (RSV replicon): 1 to 50 µM | CC50 at 5 days [1, 3]: 10 to 100 µM | EC50 [2, 4]: < 1 µM

COc1cc(C(=O)NCC(O)(c2cc3c(c(-c4ccc(F)c(C(F)(F)F)c4)n2)OCC3(C)N)C(F)(F)F)ccc1CO[C@@H](C)O (stereo partly shown) [Compound 665]
IC50 (recombinant RSV complex): < 1 µM | EC50 (RSV replicon): < 1 µM | CC50 at 5 days [1, 3]: 10 to 100 µM | EC50 [2, 4]: < 1 µM

COc1cc(C(=O)NCC(C)(O)c2ccc(OC)c(-c3ccc(F)c(Cl)c3)n2)ccc1OCCO (racemic) [Compound 120]
IC50 (recombinant RSV complex): < 1 µM | EC50 (RSV replicon): < 1 µM | CC50 at 5 days [1, 3]: > 100 µM | EC50 [2, 5]: < 1 µM

COc1cc(C(=O)NCC(N)(c2cc(C(C)(C)N)cc(-c3ccc(F)c(Cl)c3)n2)C(F)(F)F)ccc1OC1CC1 (stereo not shown) [Compound 504]
IC50 (recombinant RSV complex): < 1 µM | EC50 (RSV replicon): < 1 µM | CC50 at 5 days [1, 3]: 10 to 100 µM | EC50 [2, 4]: < 1 µM

COc1cc(C(=O)NCC(O)(c2cc(C(C)(C)N)cc(-c3ccc(F)cc3)n2)C(F)(F)F)ccc1OC[C@@H](C)O (stereo partly shown) [Compound 586]
IC50 (recombinant RSV complex): < 1 µM | EC50 (RSV replicon): < 1 µM | CC50 at 5 days [1, 3]: 10 to 100 µM | EC50 [2, 4]: < 1 µM

CNC(C)(C)c1cc(-c2ccc(F)c(Cl)c2)nc(C(O)(CNC(=O)c2ccc(OCC(N)=O)c(OC)c2)C(F)(F)F)c1 (stereo not shown) [Compound 487]
IC50 (recombinant RSV complex): < 1 µM | EC50 (RSV replicon): < 1 µM | CC50 at 5 days [1, 3]: 10 to 100 µM | EC50 [2, 4]: < 1 µM

COc1cc(C(=O)NCC(O)(c2cc3c(c(-c4ccc(F)c(Cl)c4)n2)OCC3(C)C)C2CC2)ccc1OC1CCNC1=O (stereo not shown) [Compound 223]
IC50 (recombinant RSV complex): < 1 µM | EC50 (RSV replicon): < 1 µM | CC50 at 5 days [1, 3]: 10 to 100 µM | EC50 [2, 4]: < 1 µM

C=CC(O)(CNC(=O)c1ccc(OCCF)c(OC)c1)c1ccc(OC)c(-c2ccc(F)c(Cl)c2)n1 (stereo not shown) [Compound 126]
IC50 (recombinant RSV complex): < 1 µM | EC50 (RSV replicon): < 1 µM | CC50 at 5 days [1, 3]: 10 to 100 µM | EC50 [2, 4]: < 1 µM

COc1cc(C(=O)NCC(O)(c2cc(C(C)(C)N)cc(-c3ccc(F)cc3)n2)C(F)(F)F)cnc1OCCO (stereo not shown) [Compound 643]
IC50 (recombinant RSV complex): < 1 µM | EC50 (RSV replicon): < 1 µM | CC50 at 5 days [1, 3]: > 100 µM | EC50 [2, 4]: < 1 µM

COc1cc(C(=O)NCC(O)(c2cc3c(c(-c4ccc(C(F)(F)F)cc4)n2)OCC3(C)N)C(F)(F)F)ccc1OCCO (stereo not shown) [Compound 645]
IC50 (recombinant RSV complex): < 1 µM | EC50 (RSV replicon): < 1 µM | CC50 at 5 days [1, 3]: 10 to 100 µM | EC50 [2, 4]: < 1 µM

COc1cc(C(=O)NC[C@](O)(c2cc(C(C)(C)N)cc(-c3ccc(F)cc3)n2)C(F)(F)F)ccc1OC1CC1 [Compound 496]
IC50 (recombinant RSV complex): < 1 µM | EC50 (RSV replicon): < 1 µM | CC50 at 5 days [1, 3]: 10 to 100 µM | EC50 [2, 4]: < 1 µM

COc1cc(C(=O)NCC(O)(c2cc(C(C)N)cc(-c3ccc(F)c(Cl)c3)n2)C(F)(F)F)ccc1OC1CC1 (stereo not shown) [Compound 459]
IC50 (recombinant RSV complex): < 1 µM | EC50 (RSV replicon): < 1 µM | CC50 at 5 days ([1]; no virus, 5 days, CCK-8 readout, Tables C and D list compounds by CC50 band): 10 to 100 µM | EC50 [2, 4]: < 1 µM

COc1cc(C(=O)NCC(O)(c2ccc(OC)c(-c3ccc(F)c(Cl)c3)n2)C(F)(F)F)ccc1OC1(C)CC1 (stereo not shown) [Compound 249]
IC50 (recombinant RSV complex): < 1 µM | EC50 (RSV replicon): < 1 µM | CC50 at 5 days [1, 3]: 10 to 100 µM | EC50 [2, 4]: < 1 µM

COc1cc(C(=O)NC[C@](O)(c2cc(C(C)(C)N)cc(-c3ccc(F)cc3)n2)C(F)(F)F)ccc1OCCO [Compound 554]
IC50 (recombinant RSV complex): < 1 µM | EC50 (RSV replicon): < 1 µM | CC50 at 5 days [1, 3]: 10 to 100 µM | EC50 [2, 4]: < 1 µM

COc1cc(C(=O)NCC(O)(c2cc3c(c(-c4ccc(F)c(Cl)c4)n2)OCC3(C)C)C(F)(F)F)ccc1OC1CC1 (stereo not shown) [Compound 209]
IC50 (recombinant RSV complex): < 1 µM | EC50 (RSV replicon): < 1 µM | CC50 at 5 days [1, 3]: > 100 µM | EC50 [2, 4]: < 1 µM

COc1cc(C(=O)NCC(O)(Cn2cncn2)c2ccc(OC)c(-c3ccc(F)c(Cl)c3)n2)ccc1OCCO (stereo not shown) [Compound 194]
IC50 (recombinant RSV complex): < 1 µM | EC50 (RSV replicon): < 1 µM | CC50 at 5 days [1, 3]: > 100 µM | EC50 [2, 4]: < 1 µM

COc1cc(C(=O)NCC(O)(c2cc3c(c(-c4ccc(F)cc4)n2)OCC3(C)N)C(F)(F)F)cc2cccnc12 (stereo not shown) [Compound 635]
IC50 (recombinant RSV complex): < 1 µM | EC50 (RSV replicon): < 1 µM | CC50 at 5 days [1, 3]: 10 to 100 µM | EC50 [2, 4]: < 1 µM

COc1cc(C(=O)NCC(O)(c2cc(C(C)(C)N)cc(-c3ccc(F)cc3)n2)C(F)(F)F)ccc1OCC(N)=O (stereo not shown) [Compound 580]
IC50 (recombinant RSV complex): < 1 µM | EC50 (RSV replicon): < 1 µM | CC50 at 5 days [1, 3]: > 100 µM | EC50 [2, 5]: < 1 µM
